Measured values published in patent publication US8114843B2, “Photoreactive regulator of protein function and methods of use thereof” (The Regents of the University of California, priority 2005, dated 2012).

Assays:
Test in all cases: PAL photoswitching, whole-cell patch clamp in HEK cells
Format in all cases: cell-based
[1] = target: T1, Kv1.4 (Homo sapiens, UniProt P22459); conditions: n=6
T1 construct: expressed in transfected cells; host or cells: HEK cells
Protocol: (§1) Cell culture and transfection. HEK293 cells were grown in DMEM containing 5% fetal bovine serum, at 37° C., 7% CO2. For electrophysiology, cells were plated at 12×10^5 cells/cm^2 on poly-L-lysine coated coverslips and transfected using the calcium phosphate method. Recordings were performed 24-36 hours after transfection.
(§2) PAL attachment. HEK293 and hippocampal cells were rinsed in extracellular solution containing in mM: 138 NaCl, 1.5 KCl, 1.2 MgCl2, 2.5 CaCl2, 5 HEPES, 10 glucose and incubated at 37° C. in the dark with 200-250 μM PAL for 15 minutes. For slices, AAQ was diluted to 200 μM in aCSF and treatment was performed in the dark at room temperature for 10 minutes.
(§3) Electrophysiological recording. Recordings from HEK293 and hippocampal neurons were made in the whole-cell patch clamp configuration using a PC-501A amplifier (Warner Instruments). Pulse protocols and measurements were carried out with pCLAMP and a Digidata 1322 interface (Axon Instruments). For voltage-clamp experiment, cells were held at −70 mV. Data was recorded at 20 kHz and filtered at 2 kHz. Recording pipettes with 2.5-4 MΩ resistance were filled with intracellular solution containing in mM: 10 NaCl, 135 K-gluconate, 10 HEPES, 2 MgCl2, 2 MgATP, 1 EGTA, pH 7.4.
(§4) Illumination was provided using a xenon lamp (Sutter Instruments) with narrow band pass filters (380 BP10 for UV and 500 BP5 for visible light respectively). Excitation filters were changed using a lambda 10-2 filter changer (Sutter Instruments) controlled via pCLAMP software.
(§5) Percent photoswitching was defined as the difference between current in UV and visible light divided by current in UV. All data shown in bar graphs are averages±standard error of the mean.

[2] = target: T2, Kv3.3 (Homo sapiens, UniProt Q14003)
T2 construct: expressed in transfected cells; host or cells: HEK cells
T2 sequence (Q14003 1-757): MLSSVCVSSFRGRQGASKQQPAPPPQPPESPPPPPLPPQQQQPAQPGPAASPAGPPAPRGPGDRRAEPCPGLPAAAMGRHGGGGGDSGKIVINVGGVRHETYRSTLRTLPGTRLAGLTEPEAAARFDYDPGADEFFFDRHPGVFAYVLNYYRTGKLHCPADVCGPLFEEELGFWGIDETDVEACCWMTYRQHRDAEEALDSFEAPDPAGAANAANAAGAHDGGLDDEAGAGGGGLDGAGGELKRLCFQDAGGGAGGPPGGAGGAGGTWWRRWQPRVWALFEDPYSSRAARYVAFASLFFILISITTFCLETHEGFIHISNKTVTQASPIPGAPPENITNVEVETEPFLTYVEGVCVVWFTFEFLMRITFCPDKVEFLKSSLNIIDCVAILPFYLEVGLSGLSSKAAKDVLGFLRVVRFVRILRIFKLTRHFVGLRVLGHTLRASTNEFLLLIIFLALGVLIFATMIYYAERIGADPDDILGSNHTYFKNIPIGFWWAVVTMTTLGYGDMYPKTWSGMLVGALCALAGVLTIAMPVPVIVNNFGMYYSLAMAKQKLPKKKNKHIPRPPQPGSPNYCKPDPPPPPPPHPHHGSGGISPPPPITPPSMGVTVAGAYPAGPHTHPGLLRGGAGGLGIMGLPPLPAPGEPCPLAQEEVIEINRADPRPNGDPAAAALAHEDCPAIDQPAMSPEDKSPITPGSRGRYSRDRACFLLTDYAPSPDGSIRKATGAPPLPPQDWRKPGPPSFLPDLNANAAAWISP
Protocol: as §1, §2, §3, §4, §5

[3] = target: T3, BKα channels (Homo sapiens, UniProt Q12791); conditions: n=6
T3 construct: expressed in transfected cells; host or cells: HEK cells
T3 sequence (Q12791 whole entry): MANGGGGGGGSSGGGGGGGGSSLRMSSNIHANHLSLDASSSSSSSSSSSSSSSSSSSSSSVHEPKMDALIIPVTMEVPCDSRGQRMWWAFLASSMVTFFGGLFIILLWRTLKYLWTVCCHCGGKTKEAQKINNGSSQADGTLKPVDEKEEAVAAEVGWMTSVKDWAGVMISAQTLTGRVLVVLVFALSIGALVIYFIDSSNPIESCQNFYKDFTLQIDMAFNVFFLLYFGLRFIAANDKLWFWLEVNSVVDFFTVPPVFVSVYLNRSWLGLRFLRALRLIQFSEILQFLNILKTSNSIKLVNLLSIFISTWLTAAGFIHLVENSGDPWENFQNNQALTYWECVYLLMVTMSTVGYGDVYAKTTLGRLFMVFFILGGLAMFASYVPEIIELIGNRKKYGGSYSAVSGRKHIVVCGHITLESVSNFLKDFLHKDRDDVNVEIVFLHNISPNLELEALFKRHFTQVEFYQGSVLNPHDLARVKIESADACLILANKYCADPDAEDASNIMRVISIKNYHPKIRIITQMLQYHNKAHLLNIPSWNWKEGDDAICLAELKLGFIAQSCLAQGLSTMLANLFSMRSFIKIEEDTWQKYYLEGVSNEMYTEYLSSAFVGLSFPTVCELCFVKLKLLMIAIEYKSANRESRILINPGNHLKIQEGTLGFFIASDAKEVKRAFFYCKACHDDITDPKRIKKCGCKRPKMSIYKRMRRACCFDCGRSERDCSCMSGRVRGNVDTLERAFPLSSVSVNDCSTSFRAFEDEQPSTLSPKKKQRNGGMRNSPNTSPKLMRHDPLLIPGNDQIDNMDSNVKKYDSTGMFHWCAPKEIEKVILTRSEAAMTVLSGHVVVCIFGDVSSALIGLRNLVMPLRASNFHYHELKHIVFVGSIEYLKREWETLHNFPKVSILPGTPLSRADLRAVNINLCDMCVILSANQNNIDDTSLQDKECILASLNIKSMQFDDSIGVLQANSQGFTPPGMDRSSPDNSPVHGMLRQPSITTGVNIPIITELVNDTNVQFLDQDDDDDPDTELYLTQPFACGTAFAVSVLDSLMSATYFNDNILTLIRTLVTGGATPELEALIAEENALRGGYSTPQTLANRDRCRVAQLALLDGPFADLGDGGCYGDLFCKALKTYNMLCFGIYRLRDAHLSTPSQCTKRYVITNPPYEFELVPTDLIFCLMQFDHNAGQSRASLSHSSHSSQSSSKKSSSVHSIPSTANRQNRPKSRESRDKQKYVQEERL
Protocol: as §1, §2, §3, §4, §5

[4] = target: T4, Kv2.1 (Homo sapiens, UniProt Q14721)
T4 construct: expressed in transfected cells; host or cells: HEK cells
T4 sequence (Q14721 1-858): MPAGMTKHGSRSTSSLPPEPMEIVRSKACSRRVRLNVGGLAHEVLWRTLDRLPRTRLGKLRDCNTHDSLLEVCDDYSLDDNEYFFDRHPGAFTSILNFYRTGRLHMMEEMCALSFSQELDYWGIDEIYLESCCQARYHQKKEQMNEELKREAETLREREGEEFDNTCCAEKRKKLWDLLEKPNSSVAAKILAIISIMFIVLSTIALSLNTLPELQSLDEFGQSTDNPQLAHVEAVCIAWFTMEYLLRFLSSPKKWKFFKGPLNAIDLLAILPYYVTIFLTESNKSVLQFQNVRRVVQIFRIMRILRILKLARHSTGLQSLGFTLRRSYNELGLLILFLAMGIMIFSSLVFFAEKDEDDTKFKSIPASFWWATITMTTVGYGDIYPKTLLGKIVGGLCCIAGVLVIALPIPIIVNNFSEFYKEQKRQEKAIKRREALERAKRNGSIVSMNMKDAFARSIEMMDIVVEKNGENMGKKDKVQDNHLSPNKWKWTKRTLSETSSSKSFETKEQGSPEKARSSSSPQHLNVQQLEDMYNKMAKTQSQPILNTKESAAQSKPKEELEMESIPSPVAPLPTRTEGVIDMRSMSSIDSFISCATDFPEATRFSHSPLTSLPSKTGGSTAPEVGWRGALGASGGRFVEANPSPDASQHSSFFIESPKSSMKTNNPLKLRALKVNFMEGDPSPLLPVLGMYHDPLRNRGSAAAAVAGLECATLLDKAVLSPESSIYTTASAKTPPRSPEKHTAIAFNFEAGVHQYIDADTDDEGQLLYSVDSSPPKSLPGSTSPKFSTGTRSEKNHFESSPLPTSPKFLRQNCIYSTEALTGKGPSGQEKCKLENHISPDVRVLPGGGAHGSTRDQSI
Protocol: as §1, §2, §3, §4, §5

T1 sequence (P22459 whole entry): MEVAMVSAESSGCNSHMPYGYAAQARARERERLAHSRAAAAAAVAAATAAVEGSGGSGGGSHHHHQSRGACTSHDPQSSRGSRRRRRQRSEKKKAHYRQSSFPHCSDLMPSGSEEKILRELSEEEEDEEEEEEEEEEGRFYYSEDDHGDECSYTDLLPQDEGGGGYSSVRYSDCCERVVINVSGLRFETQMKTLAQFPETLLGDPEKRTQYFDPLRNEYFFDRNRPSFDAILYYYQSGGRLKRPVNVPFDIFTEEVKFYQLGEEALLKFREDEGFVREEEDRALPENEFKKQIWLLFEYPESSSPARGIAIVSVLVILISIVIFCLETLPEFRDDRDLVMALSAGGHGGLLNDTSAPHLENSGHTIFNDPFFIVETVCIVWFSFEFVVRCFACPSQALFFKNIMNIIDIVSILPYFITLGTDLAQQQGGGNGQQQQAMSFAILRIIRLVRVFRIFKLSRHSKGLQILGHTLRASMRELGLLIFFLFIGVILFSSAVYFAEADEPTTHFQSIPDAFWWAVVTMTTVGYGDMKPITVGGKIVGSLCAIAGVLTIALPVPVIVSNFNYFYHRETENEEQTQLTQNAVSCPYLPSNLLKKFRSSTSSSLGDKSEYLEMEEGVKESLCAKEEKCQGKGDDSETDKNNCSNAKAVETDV

Q: What does the source list for `C=CC(=O)Nc1ccc(/N=N/c2ccc(NC(=O)C[N+](CC)(CC)CC)cc2)cc1` [AAQ]?
A: current turned on and off by light [1]: ~80%; light-sensitivity imparted on channel [2]: imparted light-sensitivity; current regulated by light [3]: ~45%; light-sensitivity imparted on channel [4]: imparted light-sensitivity
